Experimental data from publication PMC12429584, “5-Hydroxylysine Captures the Suicidally-Inactivated Conformational State of Lysine 5,6-Aminomutase” (International Journal of Molecular Sciences, 2025).

Assays:
[1] = target: T1, Lysine 5,6-aminomutase (5,6-LAM) (Acetoanaerobium sticklandii, UniProt E3PRJ4+E3PRJ5); assay: UV-visible and X-band EPR spectroscopy; format: binding; settings: PLP and dAdoCbl holoenzyme, 100 mM NH4-EPPS pH 8.5, 37 °C; 2.5 mM (UV-vis) or 30 mM (EPR) 5-HL; active site, external aldimine with PLP; mechanism-based (suicide) inhibitor; stereoisomer mixture
T1 construct: gene kamD
T1 sequence (E3PRJ5 1-519 limits assumed): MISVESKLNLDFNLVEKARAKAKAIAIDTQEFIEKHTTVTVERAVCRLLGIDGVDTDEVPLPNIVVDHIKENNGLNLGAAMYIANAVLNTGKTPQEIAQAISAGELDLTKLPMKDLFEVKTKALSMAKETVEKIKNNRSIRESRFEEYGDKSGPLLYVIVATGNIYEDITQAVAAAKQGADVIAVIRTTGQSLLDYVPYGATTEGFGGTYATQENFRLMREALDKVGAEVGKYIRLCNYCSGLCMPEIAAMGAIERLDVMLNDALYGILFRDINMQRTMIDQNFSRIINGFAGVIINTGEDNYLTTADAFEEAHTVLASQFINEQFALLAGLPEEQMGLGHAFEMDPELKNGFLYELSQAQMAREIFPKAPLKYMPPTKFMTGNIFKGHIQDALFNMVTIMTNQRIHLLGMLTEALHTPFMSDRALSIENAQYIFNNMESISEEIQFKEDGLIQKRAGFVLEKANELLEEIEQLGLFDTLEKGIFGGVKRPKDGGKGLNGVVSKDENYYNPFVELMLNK
T1 sequence (E3PRJ4 1-262): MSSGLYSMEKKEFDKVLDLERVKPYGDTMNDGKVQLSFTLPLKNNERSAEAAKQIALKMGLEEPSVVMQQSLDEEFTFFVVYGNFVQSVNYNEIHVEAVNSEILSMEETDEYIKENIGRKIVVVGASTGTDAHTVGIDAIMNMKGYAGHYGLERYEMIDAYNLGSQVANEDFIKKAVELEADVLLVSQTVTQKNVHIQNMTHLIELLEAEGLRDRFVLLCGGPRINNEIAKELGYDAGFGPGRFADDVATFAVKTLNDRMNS

[2] = target: T1, Lysine 5,6-aminomutase (5,6-LAM); settings: turnover to 2,5-DAH at 1 and 3 min; PLP and dAdoCbl as cofactors

Row | Structure (SMILES) | UV-visible and X-band EPR spectroscopy [1] | thin-layer chromatography of product, ninhydrin [2]
1 | NCC(O)CCC(N)C(=O)O (racemic) [5-HL, 5-hydroxylysine] | These spectral changes demonstrate that 5-HL mimics the initial steps of transaldimination and Co–C bond rupture | 
2 | NCCCC[C@@H](N)C(=O)O [D-lysine] |  | bottom spot corresponding to D-lysine and the top spot corresponding to the product
